Experimental data from patent publication US9593108B2, “Compounds and methods for antiviral treatment” (PTC Therapeutics, Inc., priority 2009, dated 2017).
pIC50: −log10 of the molar value.

How the values were obtained:
[1] = system: HCV replicon RNA (GenBank Accession No. AJ242654); assay: HCV Replicon Assay (replicon RNA reduction and/or Fluc reporter signal); assay type: cell-based, Hepatitis C virus; conditions: Hepatitis C virus, 72 h, replicon-containing cells cultured with test compound for up to 3 days
Method in brief: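 Bicistronic replicon-containing cells cultured with compound for up to 3 days, with interferon as positive control. Inhibition quantified by replicon RNA reduction and/or Fluc reporter signal; IC50 values generally derived from replicon RNA reduction.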

Question: With Cc1ccc2c(C#N)c(-c3ccc(S(=O)(=O)NC4(C(F)(F)F)CC4)cn3)n(C3CCC3)c2n1 [Cpd 94, 6-(3-cyano-1-cyclobutyl-6-methyl-1H-pyrrolo[2,3-b]pyridin-2-yl)-N-[1-(trifluoromethyl)cyclopropyl]pyridine-3-sulfonamide] as the molecule, how does the pIC50 [1] read?
Answer: > 6.30

Question: And the melting point?
Answer: 230 to 236 °C

Question: With Cc1ccc2c(C#N)c(-c3ccc(S(=O)(=O)NC(C)C)nc3)n(C3CCC3)c2n1 [Cpd 96, 5-(3-cyano-1-cyclobutyl-6-methyl-1H-pyrrolo[2,3-b]pyridin-2-yl)-N-(propan-2-yl)pyridine-2-sulfonamide] as the molecule, how does the pIC50 [1] read?
Answer: > 6.30

Question: What about the melting point of the same molecule?
Answer: 211 to 216 °C

Question: With N#Cc1c(-c2ccc(S(=O)(=O)NC(CF)CF)cn2)n(C2CCC2)c2cc(Cl)ncc12 [Cpd 97, 6-(6-chloro-3-cyano-1-cyclobutyl-1H-pyrrolo[3,2-c]pyridin-2-yl)-N-(1,3-difluoropropan-2-yl)pyridine-3-sulfonamide] as the molecule, how does the pIC50 [1] read?
Answer: > 6.30

Question: And the melting point?
Answer: 215 to 216 °C

Question: What does the source list for N#Cc1c(-c2ccc(S(=O)(=O)NC3(C(F)(F)F)CC3)cn2)n(C2CCC2)c2cc(Cl)ncc12 [Cpd 98, 6-(6-chloro-3-cyano-1-cyclobutyl-1H-pyrrolo[3,2-c]pyridin-2-yl)-N-[1-(trifluoromethyl)cyclopropyl]pyridine-3-sulfonamide]?
Answer: pIC50 [1]: > 6.30; melting point: 227 to 228 °C

Question: With CC1(NS(=O)(=O)c2ccc(-c3c(C#N)c4cnc(Cl)cc4n3C3CCC3)nc2)CC1 [Cpd 99, 6-(6-chloro-3-cyano-1-cyclobutyl-1H-pyrrolo[3,2-c]pyridin-2-yl)-N-(1-methylcyclopropyl)pyridine-3-sulfonamide] as the molecule, how does the pIC50 [1] read?
Answer: > 6.30

Question: And the melting point?
Answer: 167 to 168 °C

Question: With CC(C)NS(=O)(=O)c1cnc(-c2c(C#N)c3cnc(Cl)cc3n2C2CCC2)nc1 [Cpd 100, 2-(6-chloro-3-cyano-1-cyclobutyl-1H-pyrrolo[3,2-c]pyridin-2-yl)-N-(propan-2-yl)pyrimidine-5-sulfonamide] as the molecule, how does the pIC50 [1] read?
Answer: > 6.30

Question: And the melting point?
Answer: 238 to 239 °C

Question: What does the source list for N#Cc1c(-c2ncc(S(=O)(=O)NC(CF)CF)cn2)n(C2CCC2)c2cc(Cl)ncc12 [Cpd 101, 2-(6-chloro-3-cyano-1-cyclobutyl-1H-pyrrolo[3,2-c]pyridin-2-yl)-N-(1,3-difluoropropan-2-yl)pyrimidine-5-sulfonamide]?
Answer: pIC50 [1]: > 6.30; melting point: 237 to 238 °C

Question: What does the source list for C[C@H](NS(=O)(=O)c1ccc(-c2c(C#N)c3cnc(Cl)cc3n2C2CCC2)cc1)C(F)(F)F [Cpd 102, 4-(6-chloro-3-cyano-1-cyclobutyl-1H-pyrrolo[3,2-c]pyridin-2-yl)-N-[(2S)-1,1,1-trifluoropropan-2-yl]benzenesulfonamide]?
Answer: pIC50 [1]: > 6.30; melting point: 202 to 203 °C

Question: Which results are given for C[C@H](NS(=O)(=O)c1ccc(-c2c(C#N)c3ccncc3n2C2CCC2)nc1)C(F)(F)F [Cpd 103, 6-(3-cyano-1-cyclobutyl-1H-pyrrolo[2,3-c]pyridin-2-yl)-N-[(2S)-1,1,1-trifluoropropan-2-yl]pyridine-3-sulfonamide]?
Answer: pIC50 [1]: > 6.30; melting point: 199 to 201 °C

Question: With C[C@@H](NS(=O)(=O)c1ccc(-c2c(C#N)c3cc(Cl)ncc3n2C2CCC2)nc1)C(F)(F)F [Cpd 104, 6-(5-chloro-3-cyano-1-cyclobutyl-1H-pyrrolo[2,3-c]pyridin-2-yl)-N-[(2R)-1,1,1-trifluoropropan-2-yl]pyridine-3-sulfonamide] as the molecule, how does the pIC50 [1] read?
Answer: > 6.30

Question: What about the melting point of the same molecule?
Answer: 181 to 185 °C

Question: What does the source list for C[C@@H](NS(=O)(=O)c1ccc(-c2c(C#N)c3cc(Cl)ncc3n2C2CCC2)cc1)C(F)(F)F [Cpd 105, 4-(5-chloro-3-cyano-1-cyclobutyl-1H-pyrrolo[2,3-c]pyridin-2-yl)-N-[(2R)-1,1,1-trifluoropropan-2-yl]benzenesulfonamide]?
Answer: pIC50 [1]: > 6.30; melting point: 248 to 250 °C

Question: With N#Cc1c(-c2ccc(S(=O)(=O)NC3CC3)cn2)n(C2CCC2)c2cnc(Cl)cc12 [Cpd 106, 6-(5-chloro-3-cyano-1-cyclobutyl-1H-pyrrolo[2,3-c]pyridin-2-yl)-N-cyclopropylpyridine-3-sulfonamide] as the molecule, how does the pIC50 [1] read?
Answer: > 6.30

Question: And the melting point?
Answer: 170 to 172 °C

Question: With C[C@@H](NS(=O)(=O)c1ccc(-c2c(C#N)c3cc(C#N)cnc3n2C2CCC2)nc1)C(F)(F)F [Cpd 107, 6-(3,5-dicyano-1-cyclobutyl-1H-pyrrolo[2,3-b]pyridin-2-yl)-N-[(2R)-1,1,1-trifluoropropan-2-yl]pyridine-3-sulfonamide] as the molecule, how does the pIC50 [1] read?
Answer: > 6.30

Question: What about the melting point of the same molecule?
Answer: 202 to 203 °C

Question: With C[C@H](NS(=O)(=O)c1ccc(-c2c(C#N)c3cc(C#N)cnc3n2C2CCC2)nc1)C(F)(F)F [Cpd 108, 6-(3,5-dicyano-1-cyclobutyl-1H-pyrrolo[2,3-b]pyridin-2-yl)-N-[(2S)-1,1,1-trifluoropropan-2-yl]pyridine-3-sulfonamide] as the molecule, how does the pIC50 [1] read?
Answer: > 6.30

Question: And the melting point?
Answer: 203 to 204 °C

Question: Which results are given for C[C@H](NS(=O)(=O)c1cnc(-c2c(C#N)c3cc(C#N)cnc3n2C2CCC2)nc1)C(F)(F)F [Cpd 109, 2-(3,5-dicyano-1-cyclobutyl-1H-pyrrolo[2,3-b]pyridin-2-yl)-N-[(2S)-1,1,1-trifluoropropan-2-yl]pyrimidine-5-sulfonamide]?
Answer: pIC50 [1]: > 6.30; melting point: 216 to 219 °C

Question: Which results are given for C[C@H](NS(=O)(=O)c1ccc(-c2c(C#N)c3cc(C#N)cnc3n2C2CCC2)cc1)C(F)(F)F [Cpd 110, 4-(3,5-dicyano-1-cyclobutyl-1H-pyrrolo[2,3-b]pyridin-2-yl)-N-[(2S)-1,1,1-trifluoropropan-2-yl]benzenesulfonamide]?
Answer: pIC50 [1]: > 6.30; melting point: 241 to 243 °C

Question: With N#Cc1cnc2c(c1)c(C#N)c(-c1ccc(S(=O)(=O)NC3(C(F)(F)F)CC3)cn1)n2C1CCC1 [Cpd 111, 6-(3,5-dicyano-1-cyclobutyl-1H-pyrrolo[2,3-b]pyridin-2-yl)-N-[1-(trifluoromethyl)cyclopropyl]pyridine-3-sulfonamide] as the molecule, how does the pIC50 [1] read?
Answer: > 6.30

Question: And the melting point?
Answer: 207 to 208 °C

Question: Which results are given for N#Cc1cnc2c(c1)c(C#N)c(-c1ccc(S(=O)(=O)NC3(C(F)(F)F)CC3)cc1)n2C1CCC1 [Cpd 112, 4-(3,5-dicyano-1-cyclobutyl-1H-pyrrolo[2,3-b]pyridin-2-yl)-N-[1-(trifluoromethyl)cyclopropyl]benzenesulfonamide]?
Answer: pIC50 [1]: > 6.30; melting point: 231 to 233 °C

Question: What does the source list for CC1(NS(=O)(=O)c2ccc(-c3c(C#N)c4cc(C#N)cnc4n3C3CCC3)nc2)CC1 [Cpd 113, 6-(3,5-dicyano-1-cyclobutyl-1H-pyrrolo[2,3-b]pyridin-2-yl)-N-(1-methylcyclopropyl)pyridine-3-sulfonamide]?
Answer: pIC50 [1]: > 6.30; melting point: 198 to 200 °C

Question: With CC1(NS(=O)(=O)c2cnc(-c3c(C#N)c4cc(C#N)cnc4n3C3CCC3)nc2)CC1 [Cpd 114, 2-(3,5-dicyano-1-cyclobutyl-1H-pyrrolo[2,3-b]pyridin-2-yl)-N-(1-methylcyclopropyl)pyrimidine-5-sulfonamide] as the molecule, how does the pIC50 [1] read?
Answer: > 6.30

Question: And the melting point?
Answer: 229 to 231 °C

Question: With C[C@H](NS(=O)(=O)c1ccc(-c2c(C#N)c3cc(C4CC4)cnc3n2C2CCC2)cc1)C(F)(F)F [Cpd 115, 4-(3-cyano-1-cyclobutyl-5-cyclopropyl-1H-pyrrolo[2,3-b]pyridin-2-yl)-N-[(2S)-1,1,1-trifluoropropan-2-yl]benzenesulfonamide] as the molecule, how does the pIC50 [1] read?
Answer: 5.70 to 6.30

Question: And the melting point?
Answer: 196 to 203 °C

Question: With C[C@@H](NS(=O)(=O)c1ccc(-c2c(C#N)c3cc(C4CC4)cnc3n2C2CCC2)cc1)C(F)(F)F [Cpd 116, 4-(3-cyano-1-cyclobutyl-5-cyclopropyl-1H-pyrrolo[2,3-b]pyridin-2-yl)-N-[(2R)-1,1,1-trifluoropropan-2-yl]benzenesulfonamide] as the molecule, how does the pIC50 [1] read?
Answer: > 6.30

Question: What about the melting point of the same molecule?
Answer: 190 to 195 °C

Question: With C[C@H](NS(=O)(=O)c1ccc(-c2c(C#N)c3cc(C4CC4)cnc3n2C2CCC2)nc1)C(F)(F)F [Cpd 117, 6-(3-cyano-1-cyclobutyl-5-cyclopropyl-1H-pyrrolo[2,3-b]pyridin-2-yl)-N-[(2S)-1,1,1-trifluoropropan-2-yl]pyridine-3-sulfonamide] as the molecule, how does the pIC50 [1] read?
Answer: > 6.30

Question: And the melting point?
Answer: 136 to 144 °C

Question: Which results are given for C[C@@H](NS(=O)(=O)c1ccc(-c2c(C#N)c3cc(C4CC4)cnc3n2C2CCC2)nc1)C(F)(F)F [Cpd 118, 6-(3-cyano-1-cyclobutyl-5-cyclopropyl-1H-pyrrolo[2,3-b]pyridin-2-yl)-N-[(2R)-1,1,1-trifluoropropan-2-yl]pyridine-3-sulfonamide]?
Answer: pIC50 [1]: > 6.30; melting point: 138 to 147 °C

Question: What does the source list for C[C@H](NS(=O)(=O)c1cnc(-c2c(C#N)c3cc(C4CC4)cnc3n2C2CCC2)nc1)C(F)(F)F [Cpd 119, 2-(3-cyano-1-cyclobutyl-5-cyclopropyl-1H-pyrrolo[2,3-b]pyridin-2-yl)-N-[(2S)-1,1,1-trifluoropropan-2-yl]pyrimidine-5-sulfonamide]?
Answer: pIC50 [1]: > 6.30; melting point: 176 to 183 °C

Question: With CC(C)(NS(=O)(=O)c1ccc(-c2c(C#N)c3cc(C4CC4)cnc3n2C2CCC2)cc1)C(F)(F)F [Cpd 121, 4-(3-cyano-1-cyclobutyl-5-cyclopropyl-1H-pyrrolo[2,3-b]pyridin-2-yl)-N-(1,1,1-trifluoro-2-methylpropan-2-yl)benzenesulfonamide] as the molecule, how does the pIC50 [1] read?
Answer: > 6.30

Question: And the melting point?
Answer: 207 to 212 °C

Question: With C[C@H](NS(=O)(=O)c1ccc(-c2c(C#N)c3cc(OC(F)F)cnc3n2C2CCC2)nc1)C(F)(F)F [Cpd 122, 6-[3-cyano-1-cyclobutyl-5-(difluoromethoxy)-1H-pyrrolo[2,3-b]pyridin-2-yl]-N-[(2S)-1,1,1-trifluoropropan-2-yl]pyridine-3-sulfonamide] as the molecule, how does the pIC50 [1] read?
Answer: > 6.30

Question: What about the melting point of the same molecule?
Answer: 155 to 156 °C

Question: Which results are given for N#Cc1c(-c2ccc(S(=O)(=O)NC3(C(F)(F)F)CC3)cn2)n(C2CCC2)c2ncc(C3CC3)cc12 [Cpd 124, 6-(3-cyano-1-cyclobutyl-5-cyclopropyl-1H-pyrrolo[2,3-b]pyridin-2-yl)-N-[1-(trifluoromethyl)cyclopropyl]pyridine-3-sulfonamide]?
Answer: pIC50 [1]: > 6.30; melting point: 163 to 171 °C
